{"source": "patent US20140286945A1", "about": "“ENZYME INHIBITOR FOR CANCER TREATMENT” (The Curators of the University of Missouri, priority 2011, published 2014)", "key": {"Mec-2 cells [1]": {"test_system": "Mec-2 cells", "test": "Flow cytometry of glycosphingolipids in Mec-2 cells", "type": "cell-based", "settings": "data not shown"}, "Mec-2 cells [2]": {"test_system": "Mec-2 cells", "test": "MTT assay of cell viability/proliferation in Mec-2 cells", "type": "cell-based", "settings": "for effect on cell proliferation, agents alone: 72 hours, BIBB515 at 10 μm (10^−5), Fludarabine 10 μM (FIG. 4)"}, "Mec-2 cells [3]": {"test_system": "Mec-2 cells", "test": "Membrane lipid content of Mec-2 cells by mass spectrometry", "type": "cell-based", "settings": "24 hrs, 10^−5 M; for some diacyl phosphatidylcholine species: versus DMSO controls; for lysophosphatidylcholines (LPC): versus DMSO controls (FIG. 19); for levels of phosphatidylcholines (PC): versus DMSO controls (FIG. 20); for levels of glycosphingolipids/dihydroglycosphingolipids: versus DMSO controls (FIG. 21); for levels of ether-linked phosphatidylcholines: versus DMSO controls (FIG. 22)", "description": "Lipids were extracted by the following chloroform and methanol method. To 0.8 parts cells in aqueous solution, 1 part chloroform and 2 parts methanol was added and shaken well, then another 1 part chloroform and 1 part water added and shaken. The mixture was then centrifuged at low speeds for 5-10 min. and the lower layer removed. One part chloroform was added 3 times, shaken and centrifuged to again remove the lower layer. The layers were then combined, washed with KCl and then water. The extracted lipids from Mec-2 cells were vacuum dried after 24 hrs. of treatment with BIBB(10^−5 M) and YM(10^−5 M). Controls were treated with DMSO.\nSamples were analyzed by mass spectrometry by the Kansas Lipidomics Research Center (KLRC) and identified and quantified by comparison against standard molecular weights of lipids. Each sample was loaded, vaporized, and ionized by electron beam; ions electromagnetically separated according to mass-to-charge ratio (m/z) were detected, and the ion signal processed into mass spectra.\nCompounds were identified based on m/z of the intact ion and the mass of one fragment formed in the mass spectrometer: typically, for polar lipids, a head group fragment; for sphingolipids, a fragment characteristic of the long-chain base or sugar(s); for neutral lipids and for specialized analyses, often an acyl fragment. Quantities were reported as normalized signal/(tissue metric nanomole/3 million cells) against internal standards added in known amounts, usually with an adjustment for variation in response with m/z. Thus, quantities reported as normalized signal/(tissue metric) for diacyl or monoacyl phospholipids can be considered to be equal to nmol/(tis sue metric)."}, "Mec-2 cells [4]": {"test_system": "Mec-2 cells", "test": "Confocal microscopic analysis of glycosphingolipid density in Mec-2 cells", "type": "cell-based", "settings": "confocal microscopy, relative to control, TAK-475 at 10 μM, data not shown", "description": "Mec-2 cells were treated with BIBB515, YM-53601, or 10 μM of TAK-475 and imaged by confocal miscrscope. […] This would explain why rituximab is of limited or no efficacy in Mec-2 and Wac-3 cells, and provides a rationale for the efficacy of combination treatment with rituximab and a cholesterol biosynthetic pathway inhibitor."}, "Wac-3 cells": {"test_system": "Wac-3 cells", "test": "MTT assay of cell viability in Wac-3 cells", "type": "cell-based"}, "MCF-7 cells": {"test_system": "MCF-7 cells", "test": "MCF-7 cell proliferation (MTT)", "type": "cell-based", "settings": "for response of MCF-7 cells to treatment: at low doses", "description": "Refer to FIG. 11, which compares MCF-7 cell proliferation data among the treatments of BIBB515, Tamoxifen, Anastraozole, and various combinations thereof. During the experiments, the MCF-7 cells were treated with charcoal-stripped serum prior to treatment and grown with treatment repeated every 72 hrs. The cells were grown for 6 days, on day 7 the cell proliferation was determined by adding MTT and read at 570 nm according to the manufactures instructions. […] Thus, inhibiting the cholesterol pathway can inhibit the estrogen induced cell proliferation in MCF-7 cells."}, "Mec-2 cells [5]": {"test_system": "Mec-2 cells", "settings": "10 µM"}, "[6]": {"settings": "rat, hamster, squirrel monkey and minipig models; due to inhibition of LDL production; cited from earlier work"}, "Raji cells": {"test_system": "Raji cells", "test": "Raji (Burkitt lymphoma) cell viability at 72 hours", "type": "cell-based", "description": "1. Inhibition on cell viability of Raji after treatments with BIBB515 alone and in combination with Fludarabine. Burkitt lymphoma is a highly aggressive lymphoma, and Raji cells are sensitive to Fludarabine treatment at 10 μM concentration. […] Fludarabine was used at 5 μM concentration.\n2. Inhibition on cell viability of Raji after treatments with Terbinafine alone and in combination with Fludarabine. […] The preferred cholesterol concentration range may also various between different cancer types."}, "CD-20": {"test_system": "CD-20", "test": "Flow-cytometric analysis of CD-20 in Mec-2 cells", "type": "cell-based", "settings": "flow cytometry, Fludarabine 10 μM, compared to control (FIG. 2)"}, "dog lymphoma cells": {"test_system": "dog lymphoma cells", "test": "Dog lymphoma cell viability", "type": "cell-based", "settings": "BIBB515 10 μM", "text": "Spontaneously occurring lymphoma in the dog has many of the same histopathological, molecular, and clinical features as non-Hodgkin's lymphoma (NHL) in humans. Most of the lymphoma subtypes recognized in humans have histopathologically identical counterparts in the dog and recent investigations show similar molecular characteristics in the two species. Likewise, spontaneous lymphoma in the dog has a similar clinical presentation, response to chemotherapy, and clinical progression compared to NHL in human patients. […] A canine lymphoma cell line, OSW, was established from the thoracic effusion of a dog with relapsed peripheral T-cell lymphoma. […] See, e.g., U.S. Pat. No. 7,897,150 and Kisseberth, W. C., et al., “A novel canine lymphoma cell line: a translational and comparative model for lymphoma research,” Leuk Res, 2007 31(12): p. 1709-20."}, "patient CLL cells": {"test_system": "patient CLL cells", "test": "Patient CLL cell viability", "type": "cell-based", "description": "1. Inhibition effect with BIBB515 alone and in combination with Fludarabine and Rituximab on patient cells. To assess the effect of treatment on cell viabilities, patient CLL cells were treated with BIBB515 alone and in combination with Fludarabine and Rituximab. Untreated CLL patient cell samples and samples of patients exposed to Fludarabine were used. The treatment was done 24 hrs after the cells plated in T25 flasks."}, "CD-54": {"test_system": "CD-54", "test": "Flow-cytometric analysis of CD-54 in Mec-2 cells", "type": "cell-based", "settings": "flow cytometry, Fludarabine 10 μM, compared to control (FIG. 2)"}, "[7]": {"test_system": "multiple myeloma cell line U226B1", "test": "Multiple myeloma cell line proliferation", "type": "cell-based", "settings": "Ro-48-8071 alone (FIG. 12)"}, "[8]": {"settings": "10 μM YM-53601, 10 μg/mL alemtuzumab"}}, "data": [{"molecule": "F/C(COc1ccc2c(c1)[nH]c1ccccc12)=C1/CN2CCC1CC2", "note": "[YM-53601]", "values": [{"measurement": "glycosphingolipids / lipid raft density by flow cytometry", "setting": "Mec-2 cells [1]", "value": "increase was confirmed"}, {"measurement": "effect on cell proliferation", "setting": "Mec-2 cells [2]; YM-53601 100 nM (FIG. 7)", "value": "reduces Mec-2 cell proliferation moderately"}, {"measurement": "some diacyl phosphatidylcholine species", "setting": "Mec-2 cells [3]", "value": "reduce"}, {"measurement": "lysophosphatidylcholines (LPC)", "setting": "Mec-2 cells [3]", "value": "reduce"}, {"measurement": "levels of phosphatidylcholines (PC)", "setting": "Mec-2 cells [3]", "value": "increase"}, {"measurement": "levels of glycosphingolipids/dihydroglycosphingolipids", "setting": "Mec-2 cells [3]", "value": "increase"}, {"measurement": "levels of ether-linked phosphatidylcholines", "setting": "Mec-2 cells [3]", "value": "increase"}, {"measurement": "glycosphingolipids and thus lipid raft density", "setting": "Mec-2 cells [4]", "value": "increase"}, {"measurement": "effect on cellular proliferation", "setting": "Wac-3 cells; [8]", "value": "effective at preventing cellular proliferation"}, {"measurement": "growth of cell population", "setting": "Wac-3 cells; 10 μM YM-53601, 10 μg/mL alemtuzumab, control population more than tripled", "value": "did not achieve even a doubling"}]}, {"molecule": "alemtuzumab: CD52-targeting monoclonal antibody", "values": [{"measurement": "effect on cellular proliferation", "setting": "Wac-3 cells; [8]", "value": "ineffective at the concentration tested"}]}, {"molecule": "Rituximab: an antiCD-20 monoclonal antibody that is in use in clinics", "values": [{"measurement": "effect on cell proliferation, agents alone", "setting": "Mec-2 cells [2]", "value": "resistant"}, {"measurement": "effect on cellular proliferation", "setting": "Wac-3 cells; 10 μM TAK-475, 5 μM Fludarabine, 10 μg/mL Rituximab (FIG. 14)", "value": "wholly ineffective"}]}, {"molecule": "CC/C(=C(\\c1ccccc1)c1ccc(OCCN(C)C)cc1)c1ccccc1", "note": "[Tamoxifen]", "values": [{"measurement": "response of MCF-7 cells to treatment", "setting": "MCF-7 cells", "value": "resistant"}]}, {"molecule": "Nc1nc(F)nc2c1ncn2[C@@H]1O[C@H](CO)[C@@H](O)[C@@H]1O", "note": "[Fludarabine]", "values": [{"measurement": "viability", "setting": "Mec-2 cells [5]", "value": 82, "unit": "%"}]}, {"molecule": "O=C(c1ccc(Cl)cc1)N1CCC(=Cc2ccc(C3=NCCO3)cc2)CC1", "note": "[BIBB515]", "values": [{"measurement": "lipid lowering", "setting": "[6]", "value": "lower lipids"}, {"measurement": "effect on cell proliferation, agents alone", "setting": "Mec-2 cells [2]", "value": "able to inhibit cell proliferation"}, {"measurement": "some diacyl phosphatidylcholine species", "setting": "Mec-2 cells [3]", "value": "reduce"}, {"measurement": "lysophosphatidylcholines (LPC)", "setting": "Mec-2 cells [3]", "value": "reduce"}, {"measurement": "levels of phosphatidylcholines (PC)", "setting": "Mec-2 cells [3]", "value": "increase"}, {"measurement": "levels of glycosphingolipids/dihydroglycosphingolipids", "setting": "Mec-2 cells [3]", "value": "increase"}, {"measurement": "levels of ether-linked phosphatidylcholines", "setting": "Mec-2 cells [3]", "value": "increase"}, {"measurement": "sensitization of MCF-7 cells", "setting": "MCF-7 cells; FIG. 11", "value": "sensitized"}, {"measurement": "proliferation of cells with estrogen", "setting": "MCF-7 cells; MCF-7, charcoal-stripped serum, 6 days, MTT on day 7 (FIG. 11)", "value": "blocked"}, {"measurement": "cell death in MCF-7 cells", "setting": "MCF-7 cells; relatively low doses of Tamoxifen or Anastrazole", "value": "induces cell death"}, {"measurement": "Raji cell proliferation", "setting": "Raji cells; BIBB515 various concentrations, even at 10^−7, Fludarabine 5 μM (FIG. 9)", "value": "reduced"}, {"measurement": "CD-20 cell surface expression", "setting": "CD-20", "value": "increased CD-20 cell surface expression"}, {"measurement": "viability", "setting": "Mec-2 cells [5]", "value": 65, "unit": "%"}, {"measurement": "cell viability", "setting": "dog lymphoma cells; Chlorambucil 100 nM (FIG. 16)", "value": "reducing the cell viability somewhat"}, {"measurement": "cell viability", "setting": "dog lymphoma cells; lomustine 100 nM (FIG. 15)", "value": "reducing the cell viability somewhat"}, {"measurement": "glycosphingolipids and thus lipid raft density", "setting": "Mec-2 cells [4]", "value": "increase"}, {"measurement": "sensitization of cells to Rituximab treatment", "setting": "Wac-3 cells; BIBB515 study (FIG. 8)", "value": "sensitizes the Wac-3 cells to Rituximab treatment"}, {"measurement": "effect on cell viability", "setting": "patient CLL cells; BIBB515 study", "value": "reducing the cell viability moderately"}, {"measurement": "CD-54 cell surface expression", "setting": "CD-54", "value": "maintained at the similar level"}]}, {"molecule": "CN(C/C=C/C#CC(C)(C)C)Cc1cccc2ccccc12", "note": "[Terbinafine, terbinafine]", "values": [{"measurement": "cell proliferation (MTT assay)", "setting": "Mec-2 cells [2]; Terbinafine 60 μM, controls 0.5 (FIG. 5)", "value": 0.16}, {"measurement": "Raji cell proliferation", "setting": "Raji cells; Terbinafine study (FIG. 10)", "value": "reduced"}]}, {"molecule": "C=CCN(C)CCCCCCOc1ccc(C(=O)c2ccc(Br)cc2)c(F)c1", "note": "[Ro-48-8071]", "values": [{"measurement": "lipid lowering", "setting": "[6]", "value": "lower lipids"}, {"measurement": "concentration giving the highest inhibition (dose dependent sensitivity)", "setting": "Mec-2 cells [2]; Ro-48-8071 alone (FIG. 6)", "value": 30, "unit": "µM"}, {"measurement": "effect on cell proliferation", "setting": "Mec-2 cells [2]; Ro-48-8071 study, Fludarabine 10 μM (FIG. 6)", "value": "inhibits Mec-2 cell proliferation significantly"}, {"measurement": "cell proliferation", "setting": "[7]", "value": "provides reduction on cell proliferation"}, {"measurement": "cell viability", "setting": "patient CLL cells; Ro-48-8071 study, control over 80%", "value": "about 65%"}]}, {"molecule": "CC(C)(C#N)c1cc(Cn2cncn2)cc(C(C)(C)C#N)c1", "note": "[Anastrazole]", "values": [{"measurement": "response of MCF-7 cells to treatment", "setting": "MCF-7 cells", "value": "resistant"}]}]}
